Results taken from PubChem BioAssay (NCI).
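Results reflect a 48-hour exposure of cells in 96-well plates to compound at five concentrations. At the GI50, growth is halved. Definition used: TGI = concentration required for complete inhibition of growth.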

Key:
Test in all cases: NCI-60 cell line screen, 48 h
786-0 renal = tested on: 786-0 renal
A498 renal = tested on: A498 renal
A549 NSCLC = tested on: A549 NSCLC
ACHN renal = tested on: ACHN renal
BT-549 breast = tested on: BT-549 breast
CAKI-1 renal = tested on: CAKI-1 renal
CCRF-CEM leukemia = tested on: CCRF-CEM leukemia
COLO 205 colon = tested on: COLO 205 colon
DU-145 prostate = tested on: DU-145 prostate
EKVX NSCLC = tested on: EKVX NSCLC
HCC-2998 colon = tested on: HCC-2998 colon
HCT-116 colon = tested on: HCT-116 colon
HCT-15 colon = tested on: HCT-15 colon
HL-60(TB) leukemia = tested on: HL-60(TB) leukemia
HOP-62 NSCLC = tested on: HOP-62 NSCLC
HOP-92 NSCLC = tested on: HOP-92 NSCLC
HS 578T breast = tested on: HS 578T breast
HT29 colon = tested on: HT29 colon
IGROV1 ovarian = tested on: IGROV1 ovarian
K-562 leukemia = tested on: K-562 leukemia
KM12 colon = tested on: KM12 colon
LOX IMVI melanoma = tested on: LOX IMVI melanoma
M14 melanoma = tested on: M14 melanoma
MALME-3M melanoma = tested on: MALME-3M melanoma
MCF7 breast = tested on: MCF7 breast
MDA-MB-231 breast = tested on: MDA-MB-231 breast
MDA-MB-435 = tested on: MDA-MB-435
MDA-MB-468 breast = tested on: MDA-MB-468 breast
MOLT-4 leukemia = tested on: MOLT-4 leukemia
NCI-H226 lung = tested on: NCI-H226 lung
NCI-H23 lung = tested on: NCI-H23 lung
NCI-H460 lung = tested on: NCI-H460 lung
NCI-H522 lung = tested on: NCI-H522 lung
NCI/ADR-RES ovarian = tested on: NCI/ADR-RES ovarian
OVCAR-3 ovarian = tested on: OVCAR-3 ovarian
OVCAR-4 ovarian = tested on: OVCAR-4 ovarian
OVCAR-5 ovarian = tested on: OVCAR-5 ovarian
OVCAR-8 ovarian = tested on: OVCAR-8 ovarian
PC-3 prostate = tested on: PC-3 prostate
RPMI-8226 leukemia = tested on: RPMI-8226 leukemia
RXF 393 renal = tested on: RXF 393 renal
SF-268 CNS = tested on: SF-268 CNS
SF-295 CNS = tested on: SF-295 CNS
SF-539 CNS = tested on: SF-539 CNS
SK-MEL-2 melanoma = tested on: SK-MEL-2 melanoma
SK-MEL-28 melanoma = tested on: SK-MEL-28 melanoma
SK-MEL-5 melanoma = tested on: SK-MEL-5 melanoma
SK-OV-3 ovarian = tested on: SK-OV-3 ovarian
SN12C renal = tested on: SN12C renal
SNB-19 CNS = tested on: SNB-19 CNS
SNB-75 CNS = tested on: SNB-75 CNS
SR leukemia = tested on: SR leukemia
SW-620 colon = tested on: SW-620 colon
T-47D breast = tested on: T-47D breast
TK-10 renal = tested on: TK-10 renal
U251 CNS = tested on: U251 CNS
UACC-257 melanoma = tested on: UACC-257 melanoma
UACC-62 melanoma = tested on: UACC-62 melanoma
UO-31 renal = tested on: UO-31 renal

For `COc1ccc(CCN2C(=O)/C(=C/c3csc(C#N)n3)SC2=S)cc1OC`, which GI50 (786-0 renal) is on record?
Its GI50 is 5.56 µM.

And the TGI (786-0 renal)?
Its TGI is 18.9 µM.

And the GI50 (A498 renal)?
The GI50 was 18.6 µM.

And the TGI (A498 renal)?
The TGI was 68 µM.

And the GI50 (A549 NSCLC)?
The GI50 was 35 µM.

What about the TGI (A549 NSCLC) of the same compound?
Its TGI is greater than 100 µM.

And the GI50 (ACHN renal)?
The GI50 was 13.4 µM.

And the TGI (ACHN renal)?
Its TGI is 31.4 µM.

And the GI50 (BT-549 breast)?
The GI50 was 11.4 µM.

And the TGI (BT-549 breast)?
The TGI was 24.2 µM.

And the GI50 (CAKI-1 renal)?
The GI50 was 16.5 µM.

And the TGI (CAKI-1 renal)?
Its TGI is 33.3 µM.

And the GI50 (CCRF-CEM leukemia)?
Its GI50 is 3.38 µM.

What about the TGI (CCRF-CEM leukemia) of the same compound?
Its TGI is 11.4 µM.

And the GI50 (COLO 205 colon)?
Its GI50 is 21.6 µM.

And the TGI (COLO 205 colon)?
The TGI was 87.5 µM.

What about the GI50 (DU-145 prostate) of the same compound?
The GI50 was 2.96 µM.

And the TGI (DU-145 prostate)?
The TGI was 10.5 µM.

And the GI50 (EKVX NSCLC)?
Its GI50 is 22.2 µM.

And the TGI (EKVX NSCLC)?
Its TGI is 60 µM.

What about the GI50 (HCC-2998 colon) of the same compound?
Its GI50 is 15.3 µM.

And the TGI (HCC-2998 colon)?
Its TGI is 29.9 µM.

What about the GI50 (HCT-116 colon) of the same compound?
The GI50 was 4.55 µM.

What about the TGI (HCT-116 colon) of the same compound?
The TGI was 16.9 µM.

And the GI50 (HCT-15 colon)?
The GI50 was 5.3 µM.

And the TGI (HCT-15 colon)?
Its TGI is 20.9 µM.

And the GI50 (HL-60(TB) leukemia)?
Its GI50 is 14.6 µM.

And the TGI (HL-60(TB) leukemia)?
Its TGI is 40.1 µM.

What about the GI50 (HOP-62 NSCLC) of the same compound?
Its GI50 is 22 µM.

What about the TGI (HOP-62 NSCLC) of the same compound?
The TGI was 69.6 µM.

What about the GI50 (HOP-92 NSCLC) of the same compound?
Its GI50 is 2.12 µM.

And the TGI (HOP-92 NSCLC)?
Its TGI is 8.56 µM.

And the GI50 (HS 578T breast)?
The GI50 was 19.8 µM.

And the TGI (HS 578T breast)?
Its TGI is 72.9 µM.

What about the GI50 (HT29 colon) of the same compound?
Its GI50 is 13.5 µM.

What about the TGI (HT29 colon) of the same compound?
The TGI was 27.6 µM.

And the GI50 (IGROV1 ovarian)?
The GI50 was 18.2 µM.

And the TGI (IGROV1 ovarian)?
The TGI was 41.7 µM.

What about the GI50 (K-562 leukemia) of the same compound?
The GI50 was 2.97 µM.

And the TGI (K-562 leukemia)?
Its TGI is 15.5 µM.

What about the GI50 (KM12 colon) of the same compound?
The GI50 was 3.71 µM.

And the TGI (KM12 colon)?
Its TGI is 15.2 µM.

What about the GI50 (LOX IMVI melanoma) of the same compound?
The GI50 was 2.9 µM.

And the TGI (LOX IMVI melanoma)?
Its TGI is 10.6 µM.

What about the GI50 (M14 melanoma) of the same compound?
The GI50 was 13.8 µM.

And the TGI (M14 melanoma)?
Its TGI is 49.1 µM.

What about the GI50 (MALME-3M melanoma) of the same compound?
The GI50 was 11.9 µM.

And the TGI (MALME-3M melanoma)?
Its TGI is 29.7 µM.

What about the GI50 (MCF7 breast) of the same compound?
Its GI50 is 3.3 µM.

What about the TGI (MCF7 breast) of the same compound?
Its TGI is 15.7 µM.

And the GI50 (MDA-MB-231 breast)?
The GI50 was 12 µM.

And the TGI (MDA-MB-231 breast)?
Its TGI is 28.8 µM.

What about the GI50 (MDA-MB-435) of the same compound?
The GI50 was 13.6 µM.

And the TGI (MDA-MB-435)?
The TGI was 29.3 µM.

What about the GI50 (MDA-MB-468 breast) of the same compound?
Its GI50 is 2.67 µM.

What about the TGI (MDA-MB-468 breast) of the same compound?
The TGI was 14.9 µM.

And the GI50 (MOLT-4 leukemia)?
The GI50 was 3.94 µM.

And the TGI (MOLT-4 leukemia)?
The TGI was 25.4 µM.

What about the GI50 (NCI-H226 lung) of the same compound?
The GI50 was 15.8 µM.

What about the TGI (NCI-H226 lung) of the same compound?
Its TGI is 41.5 µM.

And the GI50 (NCI-H23 lung)?
Its GI50 is 14.6 µM.

What about the TGI (NCI-H23 lung) of the same compound?
The TGI was 28 µM.

What about the GI50 (NCI-H460 lung) of the same compound?
The GI50 was 17.4 µM.

And the TGI (NCI-H460 lung)?
Its TGI is 38.7 µM.

What about the GI50 (NCI-H522 lung) of the same compound?
Its GI50 is 2.68 µM.

And the TGI (NCI-H522 lung)?
The TGI was 13.5 µM.

And the GI50 (NCI/ADR-RES ovarian)?
Its GI50 is 16.3 µM.

And the TGI (NCI/ADR-RES ovarian)?
Its TGI is 35.7 µM.

What about the GI50 (OVCAR-3 ovarian) of the same compound?
The GI50 was 4.99 µM.

And the TGI (OVCAR-3 ovarian)?
Its TGI is 18 µM.

What about the GI50 (OVCAR-4 ovarian) of the same compound?
The GI50 was 11.4 µM.

And the TGI (OVCAR-4 ovarian)?
The TGI was 32.9 µM.

And the GI50 (OVCAR-5 ovarian)?
The GI50 was 21.2 µM.

And the TGI (OVCAR-5 ovarian)?
The TGI was 69.5 µM.

What about the GI50 (OVCAR-8 ovarian) of the same compound?
Its GI50 is 15.4 µM.

What about the TGI (OVCAR-8 ovarian) of the same compound?
The TGI was 30.5 µM.

And the GI50 (PC-3 prostate)?
The GI50 was 15.6 µM.

And the TGI (PC-3 prostate)?
Its TGI is 37.9 µM.

And the GI50 (RPMI-8226 leukemia)?
The GI50 was 3.03 µM.

What about the TGI (RPMI-8226 leukemia) of the same compound?
The TGI was 19.9 µM.

What about the GI50 (RXF 393 renal) of the same compound?
The GI50 was 3.56 µM.

And the TGI (RXF 393 renal)?
Its TGI is 12.6 µM.

And the GI50 (SF-268 CNS)?
Its GI50 is 12.2 µM.

And the TGI (SF-268 CNS)?
Its TGI is 27 µM.

What about the GI50 (SF-295 CNS) of the same compound?
The GI50 was 83.8 µM.

What about the TGI (SF-295 CNS) of the same compound?
Its TGI is greater than 100 µM.

What about the GI50 (SF-539 CNS) of the same compound?
The GI50 was 12.5 µM.

What about the TGI (SF-539 CNS) of the same compound?
The TGI was 25 µM.

What about the GI50 (SK-MEL-2 melanoma) of the same compound?
Its GI50 is 13.3 µM.

What about the TGI (SK-MEL-2 melanoma) of the same compound?
The TGI was 28.6 µM.

And the GI50 (SK-MEL-28 melanoma)?
Its GI50 is 12.1 µM.

And the TGI (SK-MEL-28 melanoma)?
The TGI was 25.3 µM.

What about the GI50 (SK-MEL-5 melanoma) of the same compound?
Its GI50 is 13.6 µM.

What about the TGI (SK-MEL-5 melanoma) of the same compound?
Its TGI is 28.8 µM.

What about the GI50 (SK-OV-3 ovarian) of the same compound?
Its GI50 is 66.8 µM.

And the TGI (SK-OV-3 ovarian)?
Its TGI is greater than 100 µM.

What about the GI50 (SN12C renal) of the same compound?
Its GI50 is 11.9 µM.

What about the TGI (SN12C renal) of the same compound?
Its TGI is 26.4 µM.

And the GI50 (SNB-19 CNS)?
The GI50 was 20.7 µM.

What about the TGI (SNB-19 CNS) of the same compound?
The TGI was 54 µM.

What about the GI50 (SNB-75 CNS) of the same compound?
The GI50 was 22.6 µM.

What about the TGI (SNB-75 CNS) of the same compound?
Its TGI is greater than 100 µM.

And the GI50 (SR leukemia)?
The GI50 was 2.46 µM.

And the TGI (SR leukemia)?
Its TGI is 8.72 µM.

And the GI50 (SW-620 colon)?
The GI50 was 3.15 µM.

And the TGI (SW-620 colon)?
Its TGI is 11.7 µM.

What about the GI50 (T-47D breast) of the same compound?
Its GI50 is 3.22 µM.

What about the TGI (T-47D breast) of the same compound?
The TGI was 20.6 µM.

And the GI50 (TK-10 renal)?
The GI50 was 3.13 µM.

And the TGI (TK-10 renal)?
The TGI was 10.3 µM.

And the GI50 (U251 CNS)?
Its GI50 is 14.8 µM.

And the TGI (U251 CNS)?
Its TGI is 29.9 µM.

And the GI50 (UACC-257 melanoma)?
The GI50 was 11 µM.

What about the TGI (UACC-257 melanoma) of the same compound?
Its TGI is 34 µM.

What about the GI50 (UACC-62 melanoma) of the same compound?
Its GI50 is 11.5 µM.

What about the TGI (UACC-62 melanoma) of the same compound?
Its TGI is 23.9 µM.

And the GI50 (UO-31 renal)?
Its GI50 is 5.08 µM.

And the TGI (UO-31 renal)?
Its TGI is 23.9 µM.
